Measurements reported in PubChem BioAssay (NCI).
“And” between values parts separate entries of the source, which are not always exact repeats. Equal values may be shown once.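 96-well plates; 48 h exposure; 5 concentrations. Endpoints by linear interpolation between flanking doses. Not reached: highest tested concentration assigned. The concentration for 50% growth inhibition is given as GI50. At the TGI there is no net growth.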

What was measured:
Test in all cases: NCI tumour cell line growth inhibition, 48 h
DMS 273 small cell lung = tested on: DMS 273 small cell lung
P388/ADR leukemia = tested on: P388/ADR leukemia
P388 leukemia = tested on: P388 leukemia
M19-MEL melanoma = tested on: M19-MEL melanoma
RXF-631 renal = tested on: RXF-631 renal
MDA-N = tested on: MDA-N
SN12K1 renal = tested on: SN12K1 renal
KM20L2 colon = tested on: KM20L2 colon
XF 498 CNS = tested on: XF 498 CNS
DMS 114 small cell lung = tested on: DMS 114 small cell lung
SNB-78 CNS = tested on: SNB-78 CNS
HOP-18 NSCLC = tested on: HOP-18 NSCLC

Compound | TGI (DMS 273 small cell lung) | TGI (M19-MEL melanoma) | TGI (MDA-N) [µM] | TGI (KM20L2 colon) [µM] | TGI (XF 498 CNS) [µM] | TGI (DMS 114 small cell lung) [µM] | TGI (SNB-78 CNS) [µM] | TGI (HOP-18 NSCLC) [µM] | also measured
CC(=O)OC(C)(C)/C=C/C(=O)[C@](C)(O)[C@H]1[C@H](O)C[C@@]2(C)[C@@H]3CC=C4[C@@H](C=C(O)C(=O)C4(C)C)[C@]3(C)C(=O)C[C@]12C | 0.203 µM and 0.0544 µM and 0.1 µM | 4.2 µM and 3.01 µM and 3.43 µM | 1.57 | – | – | – | – | – | GI50 (P388/ADR leukemia): 0.175 µM; TGI (P388/ADR leukemia): 3.04 µM and 2 µM; GI50 (P388 leukemia): 0.0895 µM; TGI (P388 leukemia): 2.32 µM and 14.3 µM; GI50 (RXF-631 renal): 0.018 µM; TGI (RXF-631 renal): 0.434 µM and 0.152 µM; GI50 (SN12K1 renal): 0.0155 µM; TGI (SN12K1 renal): 0.287 µM and 0.0604 µM
CCOc1ccc(OCC)c([P+](c2ccccc2)(c2ccccc2)c2ccccc2)c1 | 1.21 µM | 16.3 µM | – | 4.13 | 0.542 | 3.18 | > 100 | 6.22 | TGI (RXF-631 renal): 51.4 µM
CCN(CC)c1ccc(C2NC(=O)c3ccccc3N2)cc1 (centres undefined) | – | – | 2.55 | – | – | – | – | – | –
CC(=O)[CH-]C(=O)c1ccccc1.CC(=O)[CH-]C(=O)c1ccccc1.CC(C)CCC[C@H](C)C1CCC2[C@@H]3CC=C4C[C@@H]([O-])CC[C@]4(C)C3CC[C@@]21C.CC(C)CCC[C@H](C)C1CCC2[C@@H]3CC=C4C[C@@H]([O-])CC[C@]4(C)C3CC[C@@]21C.Cl.[Ti+4] (some centres undefined) | > 25 µM | – | – | > 25 | – | – | – | > 25 | GI50 (DMS 273 small cell lung): > 25 µM; GI50 (KM20L2 colon): > 25 µM; GI50 (HOP-18 NSCLC): > 25 µM
COc1ccc2nc3cc([N+](=O)[O-])ccc3c(NNc3ccccc3)c2c1 | – | – | > 100 | – | – | – | – | – | –
COc1cc(/C=C/c2ccc(Br)cc2)cc(OC)c1OC | > 47.5 µM | > 71.5 µM | – | 29.8 | 65.9 | 52.8 | – | > 74.6 | TGI (RXF-631 renal): > 75.4 µM
CC1=C(C(=O)NCc2ccccc2)C(c2ccccc2C)C(C(=O)NCc2ccccc2)=C(C)N1 | > 69.9 µM | > 75.8 µM | – | > 75.5 | – | > 67.7 | > 100 | > 91.2 | TGI (RXF-631 renal): > 100 µM
O=C(CO[N+](=O)[O-])OC/C=C/c1ccccc1 | > 100 µM | > 100 µM | – | > 100 | – | > 100 | – | – | –
O=C(CCl)Nc1cc(Cl)c(Cl)cc1Cl | – | – | 3.19 | – | – | – | – | – | –
C(=Nc1cnc2ccccc2c1)c1ccc2ccccc2n1 | – | – | > 100 | – | – | – | – | – | –
CN(C)CCn1cnc2ncccc2c1=O | > 100 µM | > 100 µM | – | > 100 | > 100 | > 100 | > 100 | – | –
CC1CCC(=O)C(C(O)CC2CC(=O)N(c3ccccc3)C(=O)C2)C1 (centres undefined) | > 100 µM | > 100 µM | – | > 100 | – | > 100 | > 100 | > 100 | –
CN(C)Cc1ccc(C(C)(C)C)cc1-c1cc(C(C)(C)C)ccc1CN(C)C | – | – | > 100 | – | – | – | – | – | –
O=C1C=CC(=Nc2cccc3c(N=C4C=CC(=O)O4)cccc23)O1 | – | – | 69.1 | – | – | – | – | – | –
COc1cccc(/C=C/c2ccnc3ccccc23)c1OC | – | – | > 10 | – | – | – | – | – | –
CCCCCCCCCCSC(=O)NC | > 100 µM | > 100 µM | – | – | 54 | – | – | > 100 | –
COc1ccc(-c2ccccc2)c2[nH]c3c(c12)CCNC3=O | > 100 µM | > 100 µM | – | > 100 | – | – | > 100 | – | –
COC1[C@H](NC(=O)OC(C)(C)C)C(=O)N1Cc1ccccc1 (some centres undefined) | > 100 µM | > 100 µM | – | > 100 | > 100 | > 100 | > 100 | – | –
CCCCCCCCCCCCCCCCc1c(C(=O)OC)nc(NN)[nH]c1=O | > 50 µM | > 50 µM | – | > 50 | > 50 | > 50 | > 50 | > 50 | TGI (RXF-631 renal): > 50 µM
